Measured values from publication PMC5775428, “Towards an experimental classification system for membrane active peptides” (Scientific Reports, 2018).
Read-outs that look alike come from different tables or passages of the source.

Assays:
Xanthomonas campestris = conditions: for Minimum inhibitory concentration, Average: average of triplicates
Procedure: (§1) Antimicrobial activity was tested against three categories of human and plant pathogenic microorganisms: Gram-positive (Bacillus subtilis, Bacillus cereus, Staphylococcus aureus), Gram-negative (Escherichia coli, Pseudomonas aeruginosa, Erwinia carotovora, Pseudomonas syringae pv. tabaci, Xanthomonas campestris pv. citri) and yeasts (Candida albicans, Cryptococcus neoformans), as previously reported. […] The full list of peptide MICs was published in an accompanying paper, and is available in the current publication as supplementary dataset (Supplementary dataset 01).
(§2) The determination of the minimum inhibitory concentration (MIC) of peptides was performed as described in “Encrypted Antimicrobial Peptides from Plant Proteins”[7]. Briefly, MICs were determined following protocols M7-A10 and M27-A3 from Clinical & Laboratory Standards Institute (CLSI) for bacteria and yeasts, respectively. Different concentrations of IAPs (0.5 to 256 μM) were tested against several microorganisms in a final volume of 100 µL. Three biological repetitions, with 2 technical replicates each, were performed for each test, on polystyrene flat-bottom 96 wells microplates. The minimum inhibitory concentration (MIC) was defined as the concentration at which no cells were detected when visualized by optical microscopy. Please refer to the literature[7] for further details of the microbiological assays.

Escherichia coli = conditions: Escherichia coli; for Minimum inhibitory concentration, Average: average of triplicates
Procedure: as §1, §2

Cryptococcus neoformans = conditions: Cryptococcus neoformans; for Minimum inhibitory concentration, Average: average of triplicates
Procedure: as §1, §2

Staphylococcus aureus = conditions: Staphylococcus aureus; for Minimum inhibitory concentration, Average: average of triplicates
Procedure: as §1, §2

Pseudomonas aeruginosa = tested on: Pseudomonas aeruginosa
Procedure: as §1, §2

Bacillus cereus = tested on: Bacillus cereus
Procedure: as §1, §2

Bacillus subtilis = conditions: Bacillus subtilis; for Minimum inhibitory concentration, Average: average of triplicates
Procedure: as §1, §2

Erwinia carotovora = conditions: Erwinia carotovora; for Minimum inhibitory concentration, Average: average of triplicates
Procedure: as §1, §2

[1] = tested on: Pseudomonas syringae pv. tabaci; conditions: Pseudomonas syringae pv. tabaci; for Minimum inhibitory concentration, Average: average of triplicates
Procedure: as §1, §2

Candida albicans = conditions: Candida albicans; for Minimum inhibitory concentration, Average: average of triplicates
Procedure: as §1, §2

[2] = Pseudomonas aeruginosa, CLSI M7-A10, triplicate 1
[3] = Pseudomonas aeruginosa, average of triplicates
[4] = Pseudomonas aeruginosa, triplicate 2
[5] = Pseudomonas aeruginosa, triplicate 3
[6] = Bacillus cereus, CLSI M7-A10, triplicate 1
[7] = Bacillus cereus, average of triplicates
[8] = CLSI M27-A3, 0.5 to 256 μM tested, triplicate 1, also published in ref 7

Sequence | Minimum inhibitory concentration (Xanthomonas campestris; CLSI M7-A10, triplicate 1) [µM] | Minimum inhibitory concentration, Average (Xanthomonas campestris) [µM] | Minimum inhibitory concentration (Xanthomonas campestris; triplicate 2) [µM] | Minimum inhibitory concentration (Xanthomonas campestris; triplicate 3) [µM] | Minimum inhibitory concentration (Escherichia coli; CLSI M7-A10, triplicate 1) [µM] | Minimum inhibitory concentration, Average (Escherichia coli) [µM] | Minimum inhibitory concentration (Escherichia coli; triplicate 2) [µM] | Minimum inhibitory concentration (Escherichia coli; triplicate 3) [µM] | Minimum inhibitory concentration (Cryptococcus neoformans; CLSI M27-A3, triplicate 1) [µM] | Minimum inhibitory concentration, Average (Cryptococcus neoformans) [µM] | Minimum inhibitory concentration (Cryptococcus neoformans; triplicate 2) [µM] | Minimum inhibitory concentration (Cryptococcus neoformans; triplicate 3) [µM] | Minimum inhibitory concentration (Staphylococcus aureus; CLSI M7-A10, triplicate 1) [µM] | Minimum inhibitory concentration, Average (Staphylococcus aureus) [µM] | Minimum inhibitory concentration (Staphylococcus aureus; triplicate 2) [µM] | Minimum inhibitory concentration (Staphylococcus aureus; triplicate 3) [µM] | Minimum inhibitory concentration (Bacillus subtilis; CLSI M7-A10, triplicate 1) [µM] | Minimum inhibitory concentration, Average (Bacillus subtilis) [µM] | Minimum inhibitory concentration (Bacillus subtilis; triplicate 2) [µM] | Minimum inhibitory concentration (Bacillus subtilis; triplicate 3) [µM] | also measured
ANRLLEAYKMLLKFLGNLR [Gr02] | 4 | 4.0 | 4 | 4 | 4 | 4.0 | 4 | 4 | 2 | 2.7 | 2 | 4 | 1 | 1.0 | 1 | 1 | 1 | 1.0 | 1 | 1 | Minimum inhibitory concentration (Pseudomonas aeruginosa; [2]): 32 µM; Minimum inhibitory concentration, Average (Pseudomonas aeruginosa; [3]): 32.0 µM; Minimum inhibitory concentration (Pseudomonas aeruginosa; [4]): 32 µM; Minimum inhibitory concentration (Pseudomonas aeruginosa; [5]): 32 µM; Minimum inhibitory concentration (Bacillus cereus; [6]): 4 µM; Minimum inhibitory concentration, Average (Bacillus cereus; [7]): 4.0 µM; Minimum inhibitory concentration (Bacillus cereus; Bacillus cereus, triplicate 2): 4 µM; Minimum inhibitory concentration (Bacillus cereus; Bacillus cereus, triplicate 3): 4 µM; Minimum inhibitory concentration (Erwinia carotovora; CLSI M7-A10, triplicate 1): 1 µM; Minimum inhibitory concentration, Average (Erwinia carotovora): 1.0 µM; Minimum inhibitory concentration (Erwinia carotovora; triplicate 2): 1 µM; Minimum inhibitory concentration (Erwinia carotovora; triplicate 3): 1 µM; Minimum inhibitory concentration ([1]; CLSI M7-A10, triplicate 1): 2 µM; Minimum inhibitory concentration, Average [1]: 2.0 µM; Minimum inhibitory concentration ([1]; triplicate 2): 2 µM; Minimum inhibitory concentration ([1]; triplicate 3): 2 µM; Minimum inhibitory concentration (Candida albicans; [8]): 4 µM; Minimum inhibitory concentration, Average (Candida albicans): 4.0 µM; Minimum inhibitory concentration (Candida albicans; triplicate 2): 4 µM; Minimum inhibitory concentration (Candida albicans; triplicate 3): 4 µM
FFGHIWHGARTLFRDVFA [Cs02] | 32 | 32.0 | 32 | 32 | 8 | 8.0 | 8 | 8 | 32 | 32.0 | 32 | 32 | 8 | 8.0 | 8 | 8 | 2 | 3.3 | 4 | 4 | Minimum inhibitory concentration (Pseudomonas aeruginosa; [2]): 512 µM; Minimum inhibitory concentration, Average (Pseudomonas aeruginosa; [3]): 512.0 µM; Minimum inhibitory concentration (Pseudomonas aeruginosa; [4]): 512 µM; Minimum inhibitory concentration (Pseudomonas aeruginosa; [5]): 512 µM; Minimum inhibitory concentration (Bacillus cereus; [6]): 64 µM; Minimum inhibitory concentration, Average (Bacillus cereus; [7]): 64.0 µM; Minimum inhibitory concentration (Bacillus cereus; Bacillus cereus, triplicate 2): 64 µM; Minimum inhibitory concentration (Bacillus cereus; Bacillus cereus, triplicate 3): 64 µM; Minimum inhibitory concentration (Erwinia carotovora; CLSI M7-A10, triplicate 1): 32 µM; Minimum inhibitory concentration, Average (Erwinia carotovora): 32.0 µM; Minimum inhibitory concentration (Erwinia carotovora; triplicate 2): 32 µM; Minimum inhibitory concentration (Erwinia carotovora; triplicate 3): 32 µM; Minimum inhibitory concentration ([1]; CLSI M7-A10, triplicate 1): 4 µM; Minimum inhibitory concentration, Average [1]: 4.0 µM; Minimum inhibitory concentration ([1]; triplicate 2): 4 µM; Minimum inhibitory concentration ([1]; triplicate 3): 4 µM; Minimum inhibitory concentration (Candida albicans; [8]): 32 µM; Minimum inhibitory concentration, Average (Candida albicans): 32.0 µM; Minimum inhibitory concentration (Candida albicans; triplicate 2): 32 µM; Minimum inhibitory concentration (Candida albicans; triplicate 3): 32 µM
FFYNVIKIYGNMAGRISK [Cs03] | 512 | 512.0 | 512 | 512 | 128 | 128.0 | 128 | 128 | 32 | 32.0 | 32 | 32 | 128 | 128.0 | 128 | 128 | 64 | 64.0 | 64 | 64 | Minimum inhibitory concentration (Pseudomonas aeruginosa): 512 µM; Minimum inhibitory concentration, Average (Pseudomonas aeruginosa): 512.0 µM; Minimum inhibitory concentration (Bacillus cereus): 512 µM; Minimum inhibitory concentration, Average (Bacillus cereus): 512.0 µM; Minimum inhibitory concentration (Erwinia carotovora; CLSI M7-A10, triplicate 1): 16 µM; Minimum inhibitory concentration, Average (Erwinia carotovora): 16.0 µM; Minimum inhibitory concentration (Erwinia carotovora; triplicate 2): 16 µM; Minimum inhibitory concentration (Erwinia carotovora; triplicate 3): 16 µM; Minimum inhibitory concentration ([1]; CLSI M7-A10, triplicate 1): 128 µM; Minimum inhibitory concentration, Average [1]: 128.0 µM; Minimum inhibitory concentration ([1]; triplicate 2): 128 µM; Minimum inhibitory concentration ([1]; triplicate 3): 128 µM; Minimum inhibitory concentration (Candida albicans; [8]): 128 µM; Minimum inhibitory concentration, Average (Candida albicans): 128.0 µM; Minimum inhibitory concentration (Candida albicans; triplicate 2): 128 µM; Minimum inhibitory concentration (Candida albicans; triplicate 3): 128 µM
